According to patent publication US9700501B2, “Use of indole compounds as a cosmetic” (MERCK PATENT GESELLSCHAFT MIT BESCHRANKTER HAFTUNG, priority 2008, dated 2017):

How the values were obtained:
PPAR alpha = target: T1, PPAR alpha (Homo sapiens, UniProt Q07869); assay: PPAR-alpha transactivation assay (luciferase reporter, SK-Hep1 cells cotransfected with PPARα expression vector); type: cell-based; details: for Fold Activation PPAR alpha: 36 h incubation, luciferase activity relative to control
T1 construct: expressed in transfected cells; host or cells: human SK-Hep1 cells
T1 sequence (Q07869 1-468): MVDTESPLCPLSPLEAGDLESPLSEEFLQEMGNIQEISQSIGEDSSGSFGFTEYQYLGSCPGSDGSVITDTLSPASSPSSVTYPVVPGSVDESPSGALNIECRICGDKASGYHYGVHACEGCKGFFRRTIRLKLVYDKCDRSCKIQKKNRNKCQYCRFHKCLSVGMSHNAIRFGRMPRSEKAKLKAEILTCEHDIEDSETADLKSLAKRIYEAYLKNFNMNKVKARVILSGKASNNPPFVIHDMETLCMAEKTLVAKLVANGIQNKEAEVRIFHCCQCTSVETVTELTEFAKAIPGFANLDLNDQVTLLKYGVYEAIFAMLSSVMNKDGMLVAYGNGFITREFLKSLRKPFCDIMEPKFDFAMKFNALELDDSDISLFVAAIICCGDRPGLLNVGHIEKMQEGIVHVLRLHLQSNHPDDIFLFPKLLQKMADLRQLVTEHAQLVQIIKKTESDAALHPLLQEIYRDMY
Text: (§1) Analysis of the activation of PPARα and PPARγ is based on the transfection of a DNA allowing the expression of a reporter gene (the gene of luciferase) under the control of the PPARs, either endogenous in the case of PPARγ or exogenous in the case of PPARα. The reporter plasmid J3TkLuc comprises three copies of the response element for PPARs of the human apo A-II gene (Staels, B et al. (1995), J. Clin. Invest., 95, 705-712) which are cloned upstream of the promoter of the thymidine kinase gene of the herpes simplex virus in the plasmid pGL3. This reporter gene was obtained by subcloning, in the plasmid pGL3, the plasmid J3TkCAT described above (Fajas, L et al. (1997), J. Biol. Chem., 272, 18779-18789). […] These cells were inoculated at the rate of 20,000 cells per well (96-well plates) and transfected with 150 ng of reporter DNA complexed with a mixture of lipids. In the case of the SK-Hep1 cells, an expression vector for PPARα, described by Sher, T. et al. (1993), Biochemistry, 32, 5598-5604, is cotransfected. After 5 hours, the cells are washed twice and incubated for 36 hours in the presence of the test compound in a fresh culture medium comprising 10% foetal calf serum. At the end of incubation, the cells are lysed and the luciferase activity is measured.

PPAR gamma = assay: PPAR-gamma transactivation assay (luciferase reporter, CV1 cells expressing PPARγ); type: cell-based, human; details: for Fold Activation PPAR gamma: 36 h incubation, luciferase activity relative to control
Text: as §1

B16-V melanoma cells = assay: Inhibition of melanin synthesis in B16-V melanoma cells (whitening activity); type: cell-based; details: 72 h, alpha-MSH stimulation, FIG. 1
Experimental: B16-V melanoma cells were incubated for 72 h with assay medium containing different amounts of test substances. The concentration depends on the results of the MTT-Assay. Only concentrations without effect on viability (after 24 h incubation) were used for further melanin evaluation. Every 24 hours medium was changed and replaced by fresh assay medium containing the compounds and alpha-MSH (stimulation of melanin synthesis). The cell number was determined and the cells got lysed using 1M NaOH. Afterwards the amount of melanin was measured at 405 nm with a microplatereader (Safire2™, Tecan). Different concentrations of synthetic melanin were used to produce a calibration curve. Melanin content was expressed as pg/cell.

[1] = system: epidermal differentiation proteins; assay: In vitro expression of epidermal differentiation proteins; type: cell-based; details: own unpublished results

## CCOC(=O)c1c(C)n(CC(C)C)c2ccc(OC(C)(C(=O)O)c3ccccc3)cc12 (stereo not shown) [Compound, 2-Phenyl-2-(1-isobutyl-2-methyl-3-ethoxycarbonyl-5-indolyloxy)-propionic acid]
PPAR alpha
  PPAR-alpha activation (in words): activator
PPAR alpha; 0.1 μm
  Fold Activation PPAR alpha: 1.0 fold
PPAR alpha; 0.3 μm
  Fold Activation PPAR alpha: 1.3 fold
PPAR alpha; 1 μm
  Fold Activation PPAR alpha: 1.9 fold
PPAR alpha; 3 μm
  Fold Activation PPAR alpha: 2.3 fold
PPAR alpha; 6.25 μm
  Fold Activation PPAR alpha: 10.2 fold
PPAR alpha; 10 μm
  Fold Activation PPAR alpha: 6.7 fold
PPAR alpha; 12.5 μm
  Fold Activation PPAR alpha: 21.6 fold
PPAR alpha; 25 μm
  Fold Activation PPAR alpha: 34.8 fold
PPAR alpha; 30 μm
  Fold Activation PPAR alpha: 31.1 fold
PPAR alpha; 50 μm
  Fold Activation PPAR alpha: 42.0 fold
PPAR gamma
  PPAR-gamma activation (in words): activator
PPAR gamma; 0.1 μm
  Fold Activation PPAR gamma: 0.6 fold
PPAR gamma; 0.3 μm
  Fold Activation PPAR gamma: 1.8 fold
PPAR gamma; 1 μm
  Fold Activation PPAR gamma: 2.8 fold
PPAR gamma; 3 μm
  Fold Activation PPAR gamma: 3.0 fold
PPAR gamma; 6.25 μm
  Fold Activation PPAR gamma: 12.9 fold
PPAR gamma; 10 μm
  Fold Activation PPAR gamma: 4.3 fold
PPAR gamma; 12.5 μm
  Fold Activation PPAR gamma: 16.9 fold
PPAR gamma; 25 μm
  Fold Activation PPAR gamma: 18.7 fold
PPAR gamma; 30 μm
  Fold Activation PPAR gamma: 7.6 fold
PPAR gamma; 50 μm
  Fold Activation PPAR gamma: 18.8 fold
B16-V melanoma cells
  melanin inhibiting activity: superb melanin inhibiting activity
  melanin inhibiting activity compared with kojic acid: significantly better than kojic acid
[1]
  expression of epidermal differentiation proteins: increased expression of epidermal differentiation proteins
